Read-outs that look alike come from different tables or passages of the source.
How the values were obtained:
[1] = target: T1, Rezeptor (Glykoprotein IIb/IIIa) (Homo sapiens, UniProt P05106+P08514); assay: Inhibition of 125I-fibrinogen binding to its receptor on intact gel-filtered human platelets; conditions: inhibition of 125I-fibrinogen binding after stimulation with ADP (10µM), read-out: Ki (µM), ADP stimuliert
T1 construct: an intakten, gelfiltrierten Human-Thrombozyten; endogenous in cells; host or cells: intact, gel-filtered human platelets from donor blood, stimulated with ADP (10 µM)
T1 sequence (P08514 32-887 limits assumed): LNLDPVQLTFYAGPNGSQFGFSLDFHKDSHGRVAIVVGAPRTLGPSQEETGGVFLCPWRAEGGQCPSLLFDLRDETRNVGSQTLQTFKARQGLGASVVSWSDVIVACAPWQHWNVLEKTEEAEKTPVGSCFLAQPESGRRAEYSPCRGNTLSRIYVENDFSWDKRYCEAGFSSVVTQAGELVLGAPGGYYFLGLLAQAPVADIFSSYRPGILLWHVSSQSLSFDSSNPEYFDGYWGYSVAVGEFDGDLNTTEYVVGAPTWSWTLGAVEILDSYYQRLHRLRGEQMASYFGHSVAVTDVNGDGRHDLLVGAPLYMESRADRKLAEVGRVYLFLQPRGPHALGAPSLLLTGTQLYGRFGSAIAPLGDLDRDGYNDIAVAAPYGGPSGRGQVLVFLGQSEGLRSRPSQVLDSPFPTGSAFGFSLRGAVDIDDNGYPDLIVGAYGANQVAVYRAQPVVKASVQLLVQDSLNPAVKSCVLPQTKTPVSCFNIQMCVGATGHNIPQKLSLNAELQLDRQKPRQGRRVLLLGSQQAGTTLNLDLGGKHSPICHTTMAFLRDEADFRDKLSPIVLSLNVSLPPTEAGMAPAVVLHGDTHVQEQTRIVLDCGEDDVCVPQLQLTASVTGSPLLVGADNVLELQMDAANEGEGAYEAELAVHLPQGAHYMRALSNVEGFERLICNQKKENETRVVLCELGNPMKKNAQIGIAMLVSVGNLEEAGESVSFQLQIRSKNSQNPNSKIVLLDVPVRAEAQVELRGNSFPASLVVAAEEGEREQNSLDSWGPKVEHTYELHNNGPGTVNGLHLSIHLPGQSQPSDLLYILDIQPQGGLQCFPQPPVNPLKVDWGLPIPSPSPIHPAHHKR
T1 sequence (P08514 891-1039 partner limits assumed): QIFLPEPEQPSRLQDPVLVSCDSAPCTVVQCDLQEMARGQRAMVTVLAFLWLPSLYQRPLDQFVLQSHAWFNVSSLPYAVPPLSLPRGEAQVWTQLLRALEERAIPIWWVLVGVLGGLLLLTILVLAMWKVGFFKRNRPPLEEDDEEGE
T1 sequence (P05106 27-788): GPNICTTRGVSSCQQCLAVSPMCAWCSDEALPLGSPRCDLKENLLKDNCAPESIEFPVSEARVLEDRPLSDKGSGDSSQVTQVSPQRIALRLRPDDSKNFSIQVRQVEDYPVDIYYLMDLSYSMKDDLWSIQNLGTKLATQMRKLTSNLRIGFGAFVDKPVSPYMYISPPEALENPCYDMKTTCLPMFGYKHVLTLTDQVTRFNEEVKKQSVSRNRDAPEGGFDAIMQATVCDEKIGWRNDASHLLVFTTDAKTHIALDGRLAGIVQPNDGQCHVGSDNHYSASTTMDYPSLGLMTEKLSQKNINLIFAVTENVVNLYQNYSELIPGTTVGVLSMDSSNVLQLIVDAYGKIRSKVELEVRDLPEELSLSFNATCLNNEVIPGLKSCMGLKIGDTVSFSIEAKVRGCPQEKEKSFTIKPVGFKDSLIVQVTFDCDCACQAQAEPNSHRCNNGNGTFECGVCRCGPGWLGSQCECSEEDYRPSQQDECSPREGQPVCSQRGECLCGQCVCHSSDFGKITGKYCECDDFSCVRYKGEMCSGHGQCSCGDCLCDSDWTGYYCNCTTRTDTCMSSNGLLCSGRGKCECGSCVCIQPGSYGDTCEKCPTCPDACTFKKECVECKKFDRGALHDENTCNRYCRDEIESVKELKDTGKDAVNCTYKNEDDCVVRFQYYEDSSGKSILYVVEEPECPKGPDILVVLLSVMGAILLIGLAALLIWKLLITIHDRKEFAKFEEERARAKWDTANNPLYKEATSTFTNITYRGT
Excerpt: (§1) Geprüft werden die Verbindungen vor allem auf ihre hemmende Wirkung bei der Blutplättchenaggregation und der Anhaftung von Fibrinogen an Blutplättchen. Verwendet werden gefiltrierte Blutplättchen aus humanem Spenderblut, die mit ADP oder Thrombin aktiviert werden.
Geprüft wird die Hemmung der Bindung von Fibrinogen an seinen Rezeptor (Glykoprotein IIb/IIIa) an intakten, gelfiltrierten Human-Thrombozyten durch die erfindungsgemäßen Verbindungen. Angegeben ist der Ki Wert der Bindungshemmung von ^125I-Fibrinogen nach Stimulierung mit ADP (10µM).

[2] = tested on: gelfiltrierter Human-Thrombozyten; assay: Inhibition of aggregation of gel-filtered human platelets after ADP or thrombin stimulation; format: cell-based; conditions: platelet aggregation
Excerpt: as §1
Als funktioneller Test wird die Hemmung der Aggregation gelfiltrierter Human-Thrombozyten nach ADP- oder Thrombin-Stimulierung durch die erfindungsgemäßen Verbindungen gemessen. Angegeben ist der IC50-Wert der Hemmung.

[3] = ADP-stimulated, read-out: IC50 (µM), ADP-stimuliert
[4] = thrombin-stimulated, read-out: IC50 (µM), Thrombin-stimuliert

SMILES	Ki [1] [µM]	IC50 [2, 3] [µM]	IC50 [2, 4] [µM]
N=C(N)NCCC[C@@H]1NC(=S)N(CC(=O)N[C@@H](CC(=O)O)C(=O)N[C@H](C(=O)O)c2ccccc2)C1=O	0.07	0.5	0.1
N=C(N)c1ccc(CC2NC(=S)N(CC(=O)N[C@@H](CC(=O)O)C(=O)N[C@H](C(=O)O)c3ccccc3)C2=O)cc1 (stereo partly drawn) [Beispiel 2, (5-(S,R)-(4-Formamidino-benzyl)-4-oxo-2-thioxoimidazolidin-3-yl)-acetyl-L-aspartyl-L-phenylglycin]	0.2	0.55	0.2

From patent EP0629211B1 (HOECHST AKTIENGESELLSCHAFT, priority 1992, dated 1993)
